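Interpolation was linear, between the two tested concentrations surrounding the appropriate level; five concentrations were tested over 48 hours in 96-well plates. TGI denotes the concentration required for complete inhibition of growth.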

Test systems include A549 NSCLC; COLO 205 colon; HCT-116 colon; HOP-62 NSCLC; IGROV1 ovarian; KM12 colon; MOLT-4 leukemia; NCI-H522 lung; OVCAR-5 ovarian; SK-OV-3 ovarian.
Common to all, as to assay: NCI-60 cell line screen, 48 h

Consider `O=CN1CCN(c2ccc3ccc(=O)[nH]c3n2)CC1`, for which the TGI in the experiment with A549 NSCLC, in the experiment on COLO 205 colon, in the experiment with HCT-116 colon, in the experiment on HOP-62 NSCLC, in the experiment with IGROV1 ovarian and in the experiment on KM12 colon was greater than 100 µM throughout. Also, the TGI in the experiment with MOLT-4 leukemia, with NCI-H522 lung, in the experiment on OVCAR-5 ovarian and in the experiment with SK-OV-3 ovarian was greater than 100 µM in each case.

With `COc1cc(/C=C(\C)[N+](=O)[O-])cc(OC)c1`, the TGI in the experiment with A549 NSCLC came out at 61.5 µM; in the experiment with COLO 205 colon, 20.1 µM; with HCT-116 colon, 31.2 µM; in the experiment with HOP-62 NSCLC it was 33.7 µM; in the experiment on IGROV1 ovarian, 17.6 µM; in the experiment with KM12 colon, 36.8 µM. For the same molecule, the TGI in the experiment with MOLT-4 leukemia is 6.16 µM; in the experiment with NCI-H522 lung, 3.64 µM; in the experiment with OVCAR-5 ovarian, 36.1 µM; with SK-OV-3 ovarian, greater than 100 µM.

Take `CNC(=O)[C@H](Cc1ccccc1)NC(=O)N(CCC#N)CCN(C(=O)N[C@@H](Cc1ccccc1)C(=O)OC)c1ccccc1`: the TGI in the experiment on A549 NSCLC, with COLO 205 colon, with HCT-116 colon, with HOP-62 NSCLC, in the experiment on KM12 colon and in the experiment with MOLT-4 leukemia was greater than 100 µM each time. The TGI in the experiment with NCI-H522 lung, in the experiment with OVCAR-5 ovarian and in the experiment on SK-OV-3 ovarian was greater than 100 µM throughout.

Consider `CCOP1(=O)CC(C)=C(Cl)C(OC)C1` (stereo not drawn), for which the TGI in the experiment on A549 NSCLC, in the experiment on COLO 205 colon, with HCT-116 colon, with HOP-62 NSCLC, with IGROV1 ovarian and in the experiment with KM12 colon was greater than 100 µM in each case. The TGI in the experiment with MOLT-4 leukemia, in the experiment on NCI-H522 lung, with OVCAR-5 ovarian and in the experiment with SK-OV-3 ovarian was greater than 100 µM throughout.

On to `CC(=O)OCC1OC(OCCCOP(=O)(OCCC#N)OCC2OC(n3cnc4c(N)ncnc43)C(OC(=O)c3ccccc3)C2OC(=O)c2ccccc2)C(OC(C)=O)C(OC(C)=O)C1OC(C)=O` (stereo not drawn), for which the TGI in the experiment on A549 NSCLC, in the experiment with COLO 205 colon, in the experiment with HCT-116 colon, in the experiment with HOP-62 NSCLC, in the experiment with IGROV1 ovarian and with KM12 colon was greater than 100 µM throughout. For the same molecule, the TGI with MOLT-4 leukemia, in the experiment with NCI-H522 lung, in the experiment with OVCAR-5 ovarian and in the experiment with SK-OV-3 ovarian was greater than 100 µM throughout.

With `Nc1nc(Sc2ccc([N+](=O)[O-])c3nonc23)c2[nH]cnc2n1`, the TGI with A549 NSCLC came out at 25.1 µM; in the experiment with COLO 205 colon, 3.11 µM; with HCT-116 colon, 3.89 µM; in the experiment on HOP-62 NSCLC, 18.1 µM; in the experiment on IGROV1 ovarian, 17.1 µM; in the experiment on KM12 colon, 15.3 µM. In addition, the TGI was 1.8 µM with MOLT-4 leukemia, 2.44 µM with NCI-H522 lung, 17.3 µM in the experiment with OVCAR-5 ovarian and 9.95 µM with SK-OV-3 ovarian.

For the molecule `COC(=O)c1ccccc1CC1Cc2c(C)ccc(C)c2C1=O` (stereo not drawn), the TGI was greater than 100 µM with A549 NSCLC; 34.3 µM in the experiment with COLO 205 colon; 56 µM with HCT-116 colon; greater than 100 µM in the experiment with HOP-62 NSCLC; greater than 100 µM with IGROV1 ovarian; 76.1 µM in the experiment with KM12 colon. Moreover, the TGI is 45.6 µM in the experiment on MOLT-4 leukemia, 58.1 µM in the experiment on NCI-H522 lung, greater than 100 µM in the experiment on OVCAR-5 ovarian and greater than 100 µM in the experiment with SK-OV-3 ovarian.

For the molecule `Nc1nc(Cl)c(CO)c(NCC2(CO)CCC2)n1`, the TGI in the experiment with A549 NSCLC, in the experiment with COLO 205 colon, with HCT-116 colon, in the experiment with HOP-62 NSCLC, with IGROV1 ovarian and in the experiment with KM12 colon was greater than 100 µM each time. For the same molecule, the TGI in the experiment with MOLT-4 leukemia, in the experiment with NCI-H522 lung and in the experiment on OVCAR-5 ovarian was greater than 100 µM each time.

Take `O/N=C\c1c2c(cc3c1CCC3)CCC2`: the TGI in the experiment on A549 NSCLC, in the experiment with COLO 205 colon, in the experiment with HCT-116 colon, with HOP-62 NSCLC, in the experiment with IGROV1 ovarian and in the experiment with KM12 colon was greater than 100 µM throughout. Further, the TGI in the experiment on MOLT-4 leukemia, with NCI-H522 lung, with OVCAR-5 ovarian and in the experiment with SK-OV-3 ovarian was greater than 100 µM throughout.

For `CN(C)S(=O)(=O)c1ccc2[nH]c(O)c(C3=Nc4ccccc4C3=O)c2c1`, the TGI in the experiment on A549 NSCLC is greater than 100 µM; with COLO 205 colon it was greater than 100 µM; in the experiment on HCT-116 colon, 70.1 µM; in the experiment with HOP-62 NSCLC, 47.2 µM; with IGROV1 ovarian it was 27.4 µM; with KM12 colon, greater than 100 µM. Besides, the TGI in the experiment on MOLT-4 leukemia is 36.2 µM; in the experiment on NCI-H522 lung, greater than 100 µM; with OVCAR-5 ovarian it was greater than 100 µM; in the experiment on SK-OV-3 ovarian, 28.5 µM.

`O=C1c2cc3c(cc2NC(c2ccccc2F)C1O)OCO3` (stereo not drawn): the TGI in the experiment with A549 NSCLC is greater than 63.1 µM; in the experiment on COLO 205 colon, greater than 39.8 µM; with HCT-116 colon, greater than 35.7 µM; in the experiment on HOP-62 NSCLC, greater than 66.1 µM; with IGROV1 ovarian it was greater than 100 µM; with KM12 colon, greater than 100 µM. Besides, the TGI in the experiment with MOLT-4 leukemia is greater than 83.9 µM; with NCI-H522 lung it was 34.4 µM; with OVCAR-5 ovarian it was greater than 75.9 µM; with SK-OV-3 ovarian it was 51.1 µM.

Regarding `Nc1nc(N)c2nc(CN(C=O)c3ccc(C(=O)O)cc3)cnc2n1`, the TGI in the experiment on A549 NSCLC, in the experiment with COLO 205 colon, in the experiment on HCT-116 colon, in the experiment with HOP-62 NSCLC, in the experiment with IGROV1 ovarian and in the experiment on KM12 colon was greater than 100 µM each time. Besides, the TGI in the experiment on MOLT-4 leukemia, with NCI-H522 lung, with OVCAR-5 ovarian and in the experiment on SK-OV-3 ovarian was greater than 100 µM throughout.

On to `O=c1c(-c2nc3ccccc3c3ccccc3c2=O)nc2ccccc2c2ccccc12`, for which the TGI was greater than 100 µM in the experiment on A549 NSCLC; greater than 100 µM in the experiment with COLO 205 colon; 71.6 µM in the experiment on HCT-116 colon; greater than 100 µM in the experiment on HOP-62 NSCLC; greater than 100 µM with IGROV1 ovarian; greater than 100 µM in the experiment with KM12 colon. In addition, the TGI in the experiment with MOLT-4 leukemia, in the experiment on NCI-H522 lung, in the experiment with OVCAR-5 ovarian and in the experiment with SK-OV-3 ovarian was greater than 100 µM throughout.

On to `C=CCOCC1C2CCC3(OCCO3)C21` (stereo not drawn), for which the TGI in the experiment with A549 NSCLC, in the experiment with COLO 205 colon, in the experiment with HCT-116 colon, with HOP-62 NSCLC, with IGROV1 ovarian and with KM12 colon was greater than 100 µM in each case. The TGI in the experiment with MOLT-4 leukemia, in the experiment on NCI-H522 lung, in the experiment on OVCAR-5 ovarian and with SK-OV-3 ovarian was greater than 100 µM throughout.
